We go through 2 compounds from patent publication US20240294595A1, “GLYCOPEPTIDES AND USES THEREOF” (Arizona Board of Regents on Behalf of the University of …, priority 2013, published 2024).

Assay [1] deals with T1, PAC1 (Homo sapiens, UniProt P41586).
T1 sequence (P41586 21-468): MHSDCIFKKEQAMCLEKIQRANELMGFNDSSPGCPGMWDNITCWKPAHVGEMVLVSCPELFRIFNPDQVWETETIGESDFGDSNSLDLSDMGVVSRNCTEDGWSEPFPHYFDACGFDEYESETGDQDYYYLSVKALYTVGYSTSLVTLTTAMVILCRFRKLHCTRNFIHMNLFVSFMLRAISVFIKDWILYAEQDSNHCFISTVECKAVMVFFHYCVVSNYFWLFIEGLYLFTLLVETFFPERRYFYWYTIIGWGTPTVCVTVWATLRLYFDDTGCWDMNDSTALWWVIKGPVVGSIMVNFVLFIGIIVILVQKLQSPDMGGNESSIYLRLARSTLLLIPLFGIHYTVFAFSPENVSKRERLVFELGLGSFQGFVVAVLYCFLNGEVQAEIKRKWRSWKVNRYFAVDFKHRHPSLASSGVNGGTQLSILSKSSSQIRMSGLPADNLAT
The settings on record: previously reported; cited from earlier work.

Assay [2] has as its target T1, PAC1. Put plainly: PAC1-CHO calcium flux, FLIPR antagonist mode versus PACAP1-27. More on the design: host or cells: CHO (clonal line PAC1-CHO). Type of assay: cell-based. How it is done:
The construct was electroporated into Chinese Hamster Ovary (CHO) cells, and selected for with 500 μg/mL of G418. The resulting population was screened for high expressing clones, and one such clone selected for further analysis. […] This cell line was used for all molecular pharmacology experiments. […] All molecular pharmacology experiments were carried out using a FLIPR Tetra from Molecular Devices (Sunnyvale, CA), set to image calcium flux using the manufacturer's recommended settings and protocols. […] The cells were recovered overnight in growth medium (as above). The next day, the growth medium was replaced with Calcium 6 dye (Molecular Devices) using the manufacturer recommended buffer with 2.5 mM probenecid. […] The resulting calcium flux was recorded, and the maximum-minimum response over the entire observation time calculated and reported as the mean±SEM (4 wells per point). For antagonist mode experiments, a concentration curve (variable concentration mode) or fixed amount (fixed concentration mode) of antagonist was added to the cells, and allowed to equilibrate for 2 minutes. […] The resulting data was analyzed using a Gaddum/Schild EC50 shift model, (Schild, 1957, Gaddum, 1957) designed to analyze competitive antagonism. (Lazareno and Birdsall, 1993) The data output was the pA2 (nM) and the Schild Slope, a measure of how closely the experimental data fits the operational model of competitive antagonism (Prism). For all analyses, each independent experiment performed in quadruplicate is considered to be a sample size of 1. The pharmacology values are calculated separately from each experiment, then combined and reported as the mean±SEM for the entire set of experiments.

Entries after “also recorded” stand apart in the source; their conditions may differ. Where no end group is shown, it is not given here. Where only a bound is given, the exact number is not on record here.

Broadly, the Ki is a dissociation constant, usually derived from enzyme kinetics or from competition with a known ligand.

For `CSCC[C@H](NC(=O)[C@H](CCC(N)=O)NC(=O)[C@H](CCCCN)NC(=O)[C@H](CCCNC(=N)N)NC(=O)[C@H](Cc1ccc(O)cc1)NC(=O)[C@H](CCCNC(=N)N)NC(=O)[C@H](CO)NC(=O)[C@H](Cc1ccc(O)cc1)NC(=O)[C@H](CO)NC(=O)[C@H](CC(=O)O)NC(=O)[C@@H](NC(=O)[C@@H](N)Cc1ccccc1)[C@@H](C)O)C(=O)N[C@@H](C)C(=O)N[C@H](C(=O)N[C@@H](CCCCN)C(=O)N[C@@H](CCCCN)C(=O)N[C@@H](Cc1ccc(O)cc1)C(=O)N[C@@H](CC(C)C)C(=O)N[C@@H](C)C(=O)N[C@@H](C)C(=O)N[C@H](C(=O)N[C@@H](CC(C)C)C(=O)NCC(=O)N[C@@H](CCCCN)C(=O)N[C@@H](CCCNC(=N)N)C(=O)N[C@@H](Cc1ccc(O)cc1)C(=O)N[C@@H](CCCCN)C(=O)N[C@@H](CCC(N)=O)C(=O)N[C@@H](CCCNC(=N)N)C(=O)N[C@H](C(=O)N[C@@H](CCCCN)C(=O)N[C@@H](CC(N)=O)C(=O)N[C@@H](CCCCN)C(N)=O)C(C)C)C(C)C)C(C)C` [PACAP6-38], the Ki at PAC1 [1] was 1.5 nM. In addition, the Kb on PAC1 [2] (Gaddum/Schild EC50 shift model, read-out: pA2 (converted)) was 201 ± 55.4 nM. Moreover, on PAC1 [2] (read-out: antagonism potency (IC50), variable concentration mode), the IC50 is greater than 333 nM.
As to “PACAP6-27: truncated putative antagonist (FTDSYSRYRKQMAVKKYLAAVL; ends and bridges not checked)”, the inhibition constant (Ki) with PAC1 [1] was 60 nM. Besides, the “shift of PACAP1-27 agonist curves, fixed concentration mode” value with PAC1 [2] (fixed antagonist concentrations up to 1 μM) is “no detectable shifts in the agonist curves; also recorded: caused no shift in the agonist curves”. In addition, the “antagonist activity, variable concentration mode” value with PAC1 [2] (versus 5 nM PACAP1-27, concentration up to 1 μM) is “no significant antagonist activity”.
